Where two headings read alike, the source gives them in different places.

In assay [1] the test system is Simian Virus 40 (SV-40). The assay is described as follows: Virus inactivation of SV-40 in RC-MAP using the blood bag system (Example 2), TCID50 on CV-1 cells. It counts as cell-based. The note with it: for inactivation effect (positive control TCID50 minus inactivated solution TCID50): 7 hours; for TCID50 of the inactivated solution: room temperature (in the dark) 7 hours, positive control 6.0 log10. As for the experimental part: Blood was collected from healthy humans and RC-MAP (concentrated erythrocyte preparation) was prepared, which was introduced into the blood bag 1 (400-mL CPDA blood bag) in the blood bag system shown in FIG. 2. Thereafter, 10^8 TCID50/mL (50% infection endpoint) of SV-40 per 2 mL of RC-MAP was added to the blood bag 1 from the air-bleeding tube 10 by using a syringe, and the blood bag 1 was gently stirred.
Thereafter, the blood bag was stirred gently, and the resultant was allowed to react at room temperature (in the dark) for 7 hours to effect inactivation. After completion of the inactivation, 4 mL of the inactivated solution was sampled from the blood bag 1 and centrifuged at 3,000 rpm for 1 minute. The supernatant was used for the evaluation of virus inactivation.
(§1) Evaluation of virus inactivation was performed by TCID50 using a 96-well microplate. In a 25-cm^2 cell culture flask, a CV-1 cell (simian kidney derived cell), which is a proliferating cell of SV-40, was cultivated in a 10% fetal bovine serum-added MEM medium for 3 days for proliferation. Thereafter, the cells were floated with 0.5 mL of 0.05% trypsin-EDTA, to prepare a cell suspension in 25 mL of the 10% fetal bovine serum-added MEM medium.
(§2) After 90 μL of the cell suspension was added to each well of the 96-well microplate, 10 μL of the reaction mixture (the above-mentioned supernatant) was added to each well of the first column of the 96-well microplate and pipetting was performed to stir the resultant. Further, 10 μL of the solution in each well of the first column was added to each well of the second column of the microplate to perform 10-fold gradual dilution operation. This operation was repeated up to the wells of the twelfth column of the microplate. The microplate was incubated in a 5% carbon dioxide gas incubator at 37° C. for 10 days. Then, a cytopathic effect (CPE) by SV-40 was observed using an optical microscope, and TCID50 were calculated as logarithmic values (log10).
At the same time, TCID50 of a positive control, in which a phosphate buffer was added instead of the platinum compound, was calculated as a logarithmic value (log10). A value obtained by subtracting TCID50 of the inactivated solution from TCID50 of the positive control was defined as a killing effect (inactivation effect).
In FIG. 4, the inactivation effect means a value obtained by subtracting TCID50 of the inactivated solution (logarithmic value (log10)) from TCID50 of the above-mentioned positive control (logarithmic value (log10)).

Assay [2] concerns Simian Virus 40 (SV-40). As to the kind of experiment: Virus inactivation of SV-40 in RC-MAP (Example 1), TCID50 on CV-1 cells. It counts as cell-based. The note with it: for inactivation effect (positive control TCID50 minus inactivated solution TCID50): 7 hours; for TCID50 of the inactivated solution: room temperature (in the dark) 7 hours, positive control 6.5 log10. As for the experimental part:
In a 400-mL CPDA blood bag in the blood bag system shown in FIG. 1, RC-MAP (concentrated erythrocyte preparation) was prepared from blood collected from healthy humans. Thereafter, 2 mL of RC-MAP was sampled in a 15-mL centrifuging tube aseptically, and 2 mL of 10^8 TCID50/mL (50% infection end point) SV-40 was added thereto, followed by gentle stirring. […] After completion of the inactivation, the inactivated solution was centrifuged at 3,000 rpm for 1 minute and the supernatant was used for the evaluation of virus inactivation.
as §1, §2
At the same time, TCID50 of a positive control, in which a phosphate buffer was added instead of the platinum compound, was calculated as a logarithmic value (log10). A value obtained by subtracting TCID50 of the inactivated solution from TCID50 of the positive control was defined as a killing effect.
In FIG. 3, the inactivation effect means a value obtained by subtracting TCID50 of the inactivated solution (logarithmic value (log10)) from TCID50 of the above-mentioned positive control (logarithmic value (log10)).

For assay [3], the system named is Human Cytomegalovirus (HCMV). The assay is described as follows: Virus inactivation of HCMV in RC-MAP (Example 3), TCID50 on HEL cells. The note with it: 1.67 mM solution, 7 hours. It counts as cell-based.
Experimental: In the blood bag 1 (a 400-mL CPDA blood bag) in the blood bag system shown in FIG. 1, RC-MAP (concentrated erythrocyte preparation) was prepared from blood collected from healthy humans. Thereafter, 2 mL of RC-MAP was sampled in a 15-mL centrifuging tube aseptically, and 2 mL of 10^7 TCID50/mL HCMV was added thereto, followed by gentle stirring. […] After completion of the inactivation, the inactivated solution was centrifuged at 3,000 rpm for 1 minute and the supernatant was used for the evaluation of virus inactivation.
Evaluation of virus inactivation was performed by TCID50 using a 96-well microplate. In a 25-cm^2 cell culture flask, a HEL cell (primary human embryonic lung fibroblasts cell), which is a proliferating cell of HCMV, was cultivated in a 10% fetal bovine serum-added MEM medium for 3 days for proliferation. […]
After 90 μL of this cell suspension was added to each well of the 96-well microplate, 10 μL of the solution (the above-mentioned supernatant) was added to each well of the first column of the 96-well microplate and pipetting was performed to stir the resultant. […] Then, a cytopathic effect (CPE) by HCMV was observed using an optical microscope, and TCID50 was calculated as a logarithmic value (log10) . At the same time, TCID50 of a positive control, in which a phosphate buffer was added instead of the platinum compound, was calculated as a logarithmic value (log10).
The test system of assay [4] is Mouse Hepatitis Virus (MHV). As to the kind of experiment: Virus inactivation of MHV in RC-MAP (Example 4), TCID50 on DBT cells. It is filed as cell-based. The note with it: 1.67 mM solution, 7 hours.
Experimental: Thereafter, 2 mL of RC-MAP was sampled in a 15-mL centrifuging tube aseptically, and 2 mL of 10^7 TCID50/mL MHV was added thereto, followed by gentle stirring. […] After completion of the inactivation, the inactivated solution was centrifuged at 3,000 rpm for 1 minute and the supernatant was used for the evaluation of virus inactivation.
Evaluation of virus inactivation was performed by TCID50 using a 96-well microplate. In a 25-cm^2 cell culture flask, a DBT cell, which is a proliferating cell of MHV, was cultivated in a 5% fetal bovine serum-added MEM medium for 3 days for proliferation. Thereafter, the cells were floated with 0.5 mL of 0.05% trypsin-EDTA, to prepare a cell suspension in 25 mL of the 10% fetal bovine serum-added MEM medium.
After 90 μL of this cell suspension was added to each well of the 96-well microplate, 10 μL of the solution was added to each well of the first column of the 96-well microplate and pipetting was performed to stir the resultant. […] Then, a cytopathic effect (CPE) by MHV was observed using an optical microscope, and TCID50 was calculated as a logarithmic value (log10). At the same time, TCID50 of a positive control, in which a phosphate buffer was added instead of the platinum compound, was calculated as a logarithmic value (log10). […]
The subject of assay [5] is initial culture cells of Ehrlich cancer. The note with it: cited from earlier work.
Assay [6] deals with Yersinia enterocolitica. As to the kind of experiment: Bacteria inactivation of Yersinia enterocolitica in RC-MAP (Example 5), colony count. It counts as cell-based. The note with it: for Number of survival bacteria: RC-MAP, 7 hours. As for the experimental part:
After gentle stirring, the resultant was allowed to react at room temperature (in the dark) for 7 hours to effect inactivation.
This was cultivated at 31° C. for 2 days.
Note that solution to which no cisplatin was added was defined as a positive control. A bacteria inactivation effect was defined by a value obtained by subtracting the number of survival bacteria (logarithmic value (log10)) in cisplatin-added inactivated solution from the number of survival bacteria (logarithmic value (log10)) in the positive control.

For assay [7], the system named is Yersinia enterocolitica. As for the experimental part:
In the blood bag 1 (400-mL CPDA blood bag) of the blood bag system shown in FIG. 1, RC-MAP (concentrated erythrocyte preparation) was prepared from blood collected from healthy humans. […] To the resultant was added 2 mL of a 168 mM L-methionine solution having dissolved L-methionine in physiological saline, for a reaction at room temperature for 30 minutes.
Similarly, as neutralizing agents, L-methionine solutions having concentrations of 84 mM, 42 mM, 21 mM, 10.5 mM, 5.25 mM, 2.63 mM, and 1.31 mM, respectively, obtained by dissolving L-methionine in physiological saline or sodium thiosulfate solutions having concentrations of 168 mM, 84 mM, 42 mM, 21 mM, 10.5 mM, 5.25 mM, 2.63 mM, and 1.31 mM, respectively, obtained by dissolving sodium thiosulfate in physiological saline were used to effect a reaction. […] Thereafter, 10 μL of 10^8 CFU/mL Yersinia enterocolitica was added to each solution, and the number of bacterial cells after stirring was measured.
Measurement of bacterial cells was conducted on solutions obtained by repeating 3 times the 10-fold gradual dilution operation consisting of adding 1 mL of the inactivated solution to 9 mL of sterilized physiological saline, stirring the mixture by using a touch mixer, and further adding 1 mL of the resultant to 9 mL of physiological saline for dilution. […], 1 mL or 100 μL of the diluted solution in each stage was mixed in a petri dish having a diameter of 9 cm and containing 15 mL soybean casein digest agar medium. This was cultivated at 31° C. for 2 days. The number of colonies emerged was defined as number of survival bacteria, and a logarithmic value (log10) thereof was defined as a neutralization effect.

For a further assay, the system named is SV-40. The note with it: 3.5 mM cisplatin solution then 175 mM sodium thiosulfate solution. As for the experimental part: as §1
as §2, with “[…] A value obtained by subtracting TCID50 of the inactivated solution from TCID50 of the positive control was defined as” for “Then,”, “killing effect.” for “cytopathic effect (CPE) by SV-40 was observed using an optical microscope, and TCID50 were calculated as logarithmic values (log10).”

On to `N.N.O=C([O-])C1(C(=O)[O-])CCC1.[Pt+2]` [carboplatin], for which, in the assay on Simian Virus 40 (SV-40) [1] (3.5 mM solution), the “inactivation effect (positive control TCID50 minus inactivated solution TCID50)” value stood at 1.5 log10 and the “TCID50 of the inactivated solution” value stood at 4.5 log10. Besides, in the assay on Simian Virus 40 (SV-40) [2] (3.5 mM solution), the “inactivation effect (positive control TCID50 minus inactivated solution TCID50)” value is given as 1.00 log10 and the “TCID50 of the inactivated solution” value is 5.50 log10.

As for `N.N.[Cl][Pt][Cl]` [cisplatin], in assay [3], the “HCMV killed (anti-HCMV inactivation effect)” value was 4.00 log10. In assay [4], the “MHV killed (MHV inactivation effect)” value was determined as 4.00 log10. In addition, the “inactivation effect (positive control TCID50 minus inactivated solution TCID50)” value in the assay on Simian Virus 40 (SV-40) [1] (1.67 mM solution) came out at 5.0 log10; in the assay on Simian Virus 40 (SV-40) [2] (1.67 mM solution) it was 5.25 log10. Also, the “TCID50 of the inactivated solution” value is recorded as 1.0 log10 in the assay with Simian Virus 40 (SV-40) [1] (1.67 mM solution) and 1.25 log10 in the assay on Simian Virus 40 (SV-40) [2] (1.67 mM solution). Further, the “effective concentration against cancer cells (antiviral activity (IC50))” value in assay [5] is 0.25 µg/mL. Besides, the Bacteria killing effect with Yersinia enterocolitica [6] (cisplatin 0.0209 mM) was 0.18 log10; with Yersinia enterocolitica [6] (cisplatin 0.042 mM) it was 0.48 log10; in the assay on Yersinia enterocolitica [6] (cisplatin 0.083 mM), 1.21 log10; in the assay on Yersinia enterocolitica [6] (cisplatin 0.17 mM), 2.20 log10; in the assay on Yersinia enterocolitica [6] (cisplatin 0.33 mM) it was 2.73 log10; in the assay on Yersinia enterocolitica [6] (cisplatin 0.67 mM) it was 3.52 log10. This molecule returned a Bacteria killing effect in the assay on Yersinia enterocolitica [6] (cisplatin 1.33 mM) of 4.94 log10. Besides, the “Number of survival bacteria” value in the assay with Yersinia enterocolitica [6] (cisplatin 0.0209 mM) is on record as 4.82 log10; in the assay with Yersinia enterocolitica [6] (cisplatin 0.042 mM), 4.52 log10; with Yersinia enterocolitica [6] (cisplatin 0.083 mM) it was 3.79 log10; with Yersinia enterocolitica [6] (cisplatin 0.17 mM), 2.80 log10; in the assay on Yersinia enterocolitica [6] (cisplatin 0.33 mM), 2.27 log10; in the assay with Yersinia enterocolitica [6] (cisplatin 0.67 mM), 1.48 log10. For the same molecule, the “Number of survival bacteria” value in the assay with Yersinia enterocolitica [6] (cisplatin 1.33 mM, positive control 5.00 log10) came to 0.06 log10.

Consider `CSCC[C@H](N)C(=O)O` [methionine, L-methionine], for which the “Number of survival bacteria (neutralization effect)” value (“Number … (neutralization effect)” for short) is on record as 0.34 log10 with Yersinia enterocolitica [7] (methionine 0.44 mM after 4.00 mM cisplatin solution); 0.73 log10 in the assay with Yersinia enterocolitica [7] (methionine 0.88 mM after 4.00 mM cisplatin solution); 0.89 log10 in the assay with Yersinia enterocolitica [7] (methionine 1.75 mM after 4.00 mM cisplatin solution); 1.22 log10 in the assay with Yersinia enterocolitica [7] (methionine 3.5 mM after 4.00 mM cisplatin solution); 1.43 log10 in the assay with Yersinia enterocolitica [7] (methionine 7 mM after 4.00 mM cisplatin solution); 1.87 log10 in the assay on Yersinia enterocolitica [7] (methionine 14 mM after 4.00 mM cisplatin solution). For the same molecule, the “Number … (neutralization effect)” value in the assay on Yersinia enterocolitica [7] (methionine 28 mM after 4.00 mM cisplatin solution) was determined as 3.36 log10; in the assay on Yersinia enterocolitica [7] (methionine 56 mM after 4.00 mM cisplatin solution, 30 minutes, same as without cisplatin), 5.1 log10.

As for `[NH2][Pt]1([NH2])[O]CC(=O)[O]1` [nedaplatin], in the assay with Simian Virus 40 (SV-40) [1] (3.5 mM solution), the “inactivation effect (positive control TCID50 minus inactivated solution TCID50)” value is 3.5 log10 and the “TCID50 of the inactivated solution” value is 2.5 log10. Further, in the assay with Simian Virus 40 (SV-40) [2] (3.5 mM solution), the “inactivation effect (positive control TCID50 minus inactivated solution TCID50)” value came to 4.25 log10 and the “TCID50 of the inactivated solution” value was 2.25 log10.

On to `O=S([O-])([O-])=S.[Na+].[Na+]` [sodium thiosulfate], for which the “Number … (neutralization effect)” value was 0.44 log10 in the assay on Yersinia enterocolitica [7] (sodium thiosulfate 0.44 mM after 4.00 mM cisplatin solution); 0.86 log10 in the assay on Yersinia enterocolitica [7] (sodium thiosulfate 0.88 mM after 4.00 mM cisplatin solution); 1.28 log10 in the assay on Yersinia enterocolitica [7] (sodium thiosulfate 1.75 mM after 4.00 mM cisplatin solution); 1.51 log10 in the assay on Yersinia enterocolitica [7] (sodium thiosulfate 3.5 mM after 4.00 mM cisplatin solution); 1.98 log10 in the assay with Yersinia enterocolitica [7] (sodium thiosulfate 7 mM after 4.00 mM cisplatin solution); 2.35 log10 in the assay on Yersinia enterocolitica [7] (sodium thiosulfate 14 mM after 4.00 mM cisplatin solution). The “Number … (neutralization effect)” value with Yersinia enterocolitica [7] (sodium thiosulfate 28 mM after 4.00 mM cisplatin solution) was found to be 4.22 log10; in the assay on Yersinia enterocolitica [7] (sodium thiosulfate 56 mM after 4.00 mM cisplatin solution, 30 minutes, same as without cisplatin), 5.1 log10. The “killing effect (inactivation effect of SV-40) after neutralization” value in the assay on SV-40 is “no killing effect”. Moreover, the “TCID50 after inactivator and neutralizing agent” value in the assay on SV-40 (30 minutes, positive control 6.00 log10) is given as 6.00 log10.

The record behind these values is US20050070872A1, “Blood bag system and method of inactivating pathogenic microorganisms” (priority 2001, published 2005).
